In US20080045567A1, “Therapeutic Agent for Hyperlipemia and Therapeutic Agent for Diabetes” (Kowa Co., Ltd, priority 2004, published 2008):

How the values were obtained:
blood triglycerides [1] = assay: Lowering of blood triglycerides by combined administration of sodium salt of compound A and calcium salt of atorvastatin in rats (Example 2); format: in vivo, male Wistar strain rats; conditions: rat; for blood triglycerides in comparison with the control group (in words): orally 14 days, Dunnett's test; for Reduction rate of blood triglycerides (%): blood collected after 18 h fast, vs control group
Source text: Six-week-old male Wistar strain rats (Nippon Ikagaku Jikken Doubutsu Kabushiki Kaisha) were used for the test. Throughout the experimental period, the rats were fed in a rearing room maintained at a light-dark cycle (light period lit by room lamp: 7 am to 7 pm), a temperature of 23±3 degrees C., and a humidity of 55±15%, and were allowed free access to solid feed (CE-2: CLEA Japan, Inc.) and tap water.
Calcium salt of pitavastatin and sodium salt of the compound A were suspended in an aqueous solution of 0.5% by mass of sodium carboxymethylcellulose (Iwai Chemicals Co., Ltd.) and prepared so that the dose amount became 2 mL/kg. Since calcium salt of pitavastatin contained 9.43% by mass of water, 1.1-fold by mass of the dose amount was weighed to correct. The suspension was refrigerated (4 degrees C.) and kept in a light-resistant bottle, and its preparation was carried out every 7 days.
Thirty-two rats were divided into four groups (eight rats per each group) so that blood total cholesterol and blood triglycerides are averaged. That is, the four groups consisted of a control group, a group of calcium salt of pitavastatin alone (10 mg/kg), a group of sodium salt of the compound A alone (1 mg/kg), and a group of a combination of calcium salt of pitavastatin (10 mg/kg) and sodium salt of the compound A (1 mg/kg). The drugs were orally administered once a day (at 4 pm) for 14 days repeatedly, and the control group received orally the aqueous solution of 0.5% by mass of sodium carboxymethylcellulose at 2 mL/kg. All the groups were fasted for 18 hours after the final administration. Then, blood was collected and blood triglycerides were determined.
The effect of lowering blood triglycerides by combined administration of sodium salt of the compound A and calcium salt of atorvastatin was determined as in Example 1.

blood triglycerides [2] = assay: Lowering of blood triglycerides by combined administration of sodium salt of compound A and calcium salt of pitavastatin in rats (Example 1); format: in vivo, male Wistar strain rats; conditions: rat; for blood triglycerides in comparison with the control group (in words): orally 14 days, Dunnett's test; for Reduction rate of blood triglycerides (%): blood collected after 18 h fast, vs control group
Procedure: The effect of lowering blood triglycerides by combined administration of sodium salt of the compound A and calcium salt of pitavastatin was determined by the following method. Six-week-old male Wistar strain rats (Nippon Ikagaku Jikken Doubutsu Kabushiki Kaisha) were used for the test. Throughout the experimental period, the rats were fed in a rearing room maintained at a light-dark cycle (light period lit by room lamp: 7 am to 7 pm), a temperature of 23±3 degrees C., and a humidity of 55±15%, and were allowed free access to solid feed (CE-2: CLEA Japan, Inc.) and tap water. Calcium salt of pitavastatin and sodium salt of the compound A were suspended in an aqueous solution of 0.5% by mass of sodium carboxymethylcellulose (Iwai Chemicals Co., Ltd.) and prepared so that the dose amount became 2 mL/kg. Since calcium salt of pitavastatin contained 9.43% by mass of water, 1.1-fold by mass of the dose amount was weighed to correct. The suspension was refrigerated (4 degrees C.) and kept in a light-resistant bottle, and its preparation was carried out every 7 days. Thirty-two rats were divided into four groups (eight rats per each group) so that blood total cholesterol and blood triglycerides are averaged. That is, the four groups consisted of a control group, a group of calcium salt of pitavastatin alone (10 mg/kg), a group of sodium salt of the compound A alone (1 mg/kg), and a group of a combination of calcium salt of pitavastatin (10 mg/kg) and sodium salt of the compound A (1 mg/kg). The drugs were orally administered once a day (at 4 pm) for 14 days repeatedly, and the control group received orally the aqueous solution of 0.5% by mass of sodium carboxymethylcellulose at 2 mL/kg. All the groups were fasted for 18 hours after the final administration. Then, blood was collected and blood triglycerides were determined. Multigroup comparison between the control group and drug-administered group was performed with Dunnett's multiple comparison test after Bartlett's test for analysis of variance, and a significance level lower than 5% was considered to indicate significant difference.

[3] = 1 mg/kg orally once a day for 14 days

**Q.** Which results are given for `CC(C)c1c(C(=O)Nc2ccccc2)c(-c2ccccc2)c(-c2ccc(F)cc2)n1CC[C@@H](O)C[C@@H](O)CC(=O)O` [Atorvastatin Ca, atorvastatin]?
**A.** blood triglycerides in comparison with the control group (in words) (blood triglycerides [1]; 50 mg/kg alone): a tendency to be lowered; Reduction rate of blood triglycerides (%) (blood triglycerides [1]; 50 mg/kg orally once a day for 14 days): 7%

**Q.** For `O=C(O)C(Cl)(Cl)CCCCCCCCCCc1ccc(Cl)cc1` [Compound A Na, 12-(4-chlorophenyl)-2,2-dichlorododecanoic acid], which “blood triglycerides in comparison with the control group (in words)” value (“blood triglycerides in comparison” for short) (blood triglycerides [2]; 1 mg/kg alone, p<0.05) is on record?
**A.** a significant reduction

**Q.** What about the “Reduction rate of blood triglycerides (%)” value (from here on “Reduction rate … (%)”) (blood triglycerides [2]; [3]) of the same compound?
**A.** 25%

**Q.** What about the “blood triglycerides in comparison” value (blood triglycerides [1]; 1 mg/kg alone, p<0.05) of the same compound?
**A.** a significant reduction

**Q.** And the “Reduction rate … (%)” value (blood triglycerides [1]; [3])?
**A.** 25%

**Q.** With `O=C(O)C[C@H](O)C[C@H](O)/C=C/c1c(C2CC2)nc2ccccc2c1-c1ccc(F)cc1` [Pitavastatin Ca, (3R,5S,6E)-7-[2-cyclopropyl-4-(4-fluorophenyl)-3-quinolyl]-3,5-dihydroxy-6-heptenoic acid] as the compound, how does the “blood triglycerides in comparison” value (blood triglycerides [2]; 10 mg/kg alone) read?
**A.** a tendency to be lowered

**Q.** What about the “Reduction rate … (%)” value (blood triglycerides [2]; 10 mg/kg orally once a day for 14 days) of the same compound?
**A.** 20%
